Laboratory results taken from article PMC11363342 (ACS Central Science, 2024).

Test system: SARS-CoV-2 variants Alpha, Beta, Delta, Omicron BA.1, and XBB.1.5
Type: cell-based

O=S1(=O)O[C@@H]2[C@H](O)[C@@H](O)[C@H](O)[C@@H](CO)[C@@H]2O1 [Compound 11, 1,6-epi-cyclophellitol cyclosulfate]
reduction in infectious virus titer, SARS-CoV-2 variants: ~100 fold
